Experimental findings from ChEMBL document CHEMBL1201862, “PubChem BioAssay data set” (2004) are described below.

For assay [1], the system named is Streptococcus sp. 'group A'. The assay is described as follows: Streptococcus pyogenes SK(-)GAS viability under kanamycin – luminescence, BacTiterGlo, confirmation, counter-screen for streptokinase expression inhibitor project, dose response (AID 1900). Type of assay: functional, organism-based.
Assay [2] deals with T1, Exodeoxyribonuclease V (Escherichia coli (strain K12), UniProt P04993+P07648+P08394).
T1 sequence (P04993 whole entry): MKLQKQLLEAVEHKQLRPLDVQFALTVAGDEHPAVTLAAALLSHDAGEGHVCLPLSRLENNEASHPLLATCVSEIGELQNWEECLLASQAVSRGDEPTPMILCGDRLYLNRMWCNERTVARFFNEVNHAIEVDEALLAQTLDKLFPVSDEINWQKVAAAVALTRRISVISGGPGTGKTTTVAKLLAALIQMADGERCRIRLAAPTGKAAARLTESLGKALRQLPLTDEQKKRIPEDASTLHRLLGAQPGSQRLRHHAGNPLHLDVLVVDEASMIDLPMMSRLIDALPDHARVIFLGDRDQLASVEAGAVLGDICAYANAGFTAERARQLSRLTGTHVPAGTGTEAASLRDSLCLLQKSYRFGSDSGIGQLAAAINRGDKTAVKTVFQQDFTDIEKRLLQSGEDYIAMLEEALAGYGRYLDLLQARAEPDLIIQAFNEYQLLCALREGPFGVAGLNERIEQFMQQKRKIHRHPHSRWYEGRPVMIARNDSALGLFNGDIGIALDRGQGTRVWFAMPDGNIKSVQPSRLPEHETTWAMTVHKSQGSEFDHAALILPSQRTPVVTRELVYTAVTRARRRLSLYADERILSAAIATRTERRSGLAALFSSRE
T1 sequence (P07648 whole entry): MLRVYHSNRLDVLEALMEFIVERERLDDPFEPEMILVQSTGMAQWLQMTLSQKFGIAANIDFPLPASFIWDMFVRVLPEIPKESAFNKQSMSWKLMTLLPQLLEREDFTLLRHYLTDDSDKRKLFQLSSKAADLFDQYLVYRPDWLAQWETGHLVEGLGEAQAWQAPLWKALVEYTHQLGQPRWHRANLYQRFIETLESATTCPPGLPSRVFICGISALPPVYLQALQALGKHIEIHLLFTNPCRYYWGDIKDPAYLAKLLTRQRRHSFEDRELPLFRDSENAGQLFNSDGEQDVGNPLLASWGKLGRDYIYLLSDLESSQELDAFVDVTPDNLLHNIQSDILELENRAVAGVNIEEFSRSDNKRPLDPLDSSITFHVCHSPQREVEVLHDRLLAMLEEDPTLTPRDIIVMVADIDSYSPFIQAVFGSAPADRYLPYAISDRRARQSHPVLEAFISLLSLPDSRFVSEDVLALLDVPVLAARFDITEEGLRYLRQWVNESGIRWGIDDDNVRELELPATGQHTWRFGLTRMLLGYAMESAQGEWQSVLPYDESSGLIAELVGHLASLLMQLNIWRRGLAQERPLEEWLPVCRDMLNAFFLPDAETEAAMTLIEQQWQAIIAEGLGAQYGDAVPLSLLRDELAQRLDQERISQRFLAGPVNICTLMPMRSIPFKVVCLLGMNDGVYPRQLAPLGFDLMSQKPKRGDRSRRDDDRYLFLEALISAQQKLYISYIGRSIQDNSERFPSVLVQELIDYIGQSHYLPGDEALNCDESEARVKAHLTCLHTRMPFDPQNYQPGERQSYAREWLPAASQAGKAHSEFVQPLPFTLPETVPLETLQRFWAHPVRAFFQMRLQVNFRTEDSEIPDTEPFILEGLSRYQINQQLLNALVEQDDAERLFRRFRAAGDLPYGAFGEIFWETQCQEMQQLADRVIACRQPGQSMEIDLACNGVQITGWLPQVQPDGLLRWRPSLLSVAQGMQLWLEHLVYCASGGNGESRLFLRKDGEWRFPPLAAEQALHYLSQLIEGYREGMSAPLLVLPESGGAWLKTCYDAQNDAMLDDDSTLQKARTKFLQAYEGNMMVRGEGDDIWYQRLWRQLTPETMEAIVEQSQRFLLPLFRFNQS
T1 sequence (P08394 whole entry): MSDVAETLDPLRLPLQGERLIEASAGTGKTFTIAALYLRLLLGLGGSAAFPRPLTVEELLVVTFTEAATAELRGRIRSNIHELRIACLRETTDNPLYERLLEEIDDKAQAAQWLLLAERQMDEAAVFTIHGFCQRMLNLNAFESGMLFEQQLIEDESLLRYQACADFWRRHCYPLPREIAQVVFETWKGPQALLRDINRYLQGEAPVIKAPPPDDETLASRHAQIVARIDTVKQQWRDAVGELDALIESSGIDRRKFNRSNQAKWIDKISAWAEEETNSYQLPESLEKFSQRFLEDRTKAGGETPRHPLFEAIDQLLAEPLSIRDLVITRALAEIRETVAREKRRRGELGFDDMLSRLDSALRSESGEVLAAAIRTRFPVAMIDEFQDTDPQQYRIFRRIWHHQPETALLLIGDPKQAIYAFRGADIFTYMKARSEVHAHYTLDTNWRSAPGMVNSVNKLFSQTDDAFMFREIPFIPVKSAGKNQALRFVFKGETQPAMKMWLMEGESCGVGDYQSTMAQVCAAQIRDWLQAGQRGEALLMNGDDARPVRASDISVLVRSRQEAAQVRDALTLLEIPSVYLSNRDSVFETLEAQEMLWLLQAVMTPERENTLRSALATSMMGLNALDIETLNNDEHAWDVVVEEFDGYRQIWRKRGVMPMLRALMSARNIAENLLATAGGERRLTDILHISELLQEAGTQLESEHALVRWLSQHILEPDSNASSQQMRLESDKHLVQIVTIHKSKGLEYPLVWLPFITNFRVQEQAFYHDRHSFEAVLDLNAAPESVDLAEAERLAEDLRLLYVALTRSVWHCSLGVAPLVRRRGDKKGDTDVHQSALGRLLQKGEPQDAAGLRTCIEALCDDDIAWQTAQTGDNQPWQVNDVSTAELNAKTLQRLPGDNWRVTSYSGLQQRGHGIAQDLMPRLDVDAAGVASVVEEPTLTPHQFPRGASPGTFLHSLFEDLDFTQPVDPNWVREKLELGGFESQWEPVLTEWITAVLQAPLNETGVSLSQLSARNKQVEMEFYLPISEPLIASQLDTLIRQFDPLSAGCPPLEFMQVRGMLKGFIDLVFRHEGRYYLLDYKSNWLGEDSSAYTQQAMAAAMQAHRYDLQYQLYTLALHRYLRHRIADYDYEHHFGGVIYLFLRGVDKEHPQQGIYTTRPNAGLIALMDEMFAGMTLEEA
The assay is described as follows: RecBCD inhibition via phage-restricted bacterial growth – absorbance, V66 E. coli, mutant T4 phage, counter-screen for AddAB inhibitor project, dose response (AID 492957). Type of assay: functional, cell-based, Escherichia coli str. K-12 substr. MG1655. For orientation: A counterscreen serves to expose hits that act by an unwanted route or on another target.

Assay [3] has as its target Heat shock protein HSP 90-alpha (Homo sapiens, UniProt P07900). Type of assay: functional, organism-based.

Calls of active or inactive are those of the source. Where only a bound is given, the exact number is not on record here.

Consider `CCc1ccc(S(=O)(=O)/N=C2\C=C(Nc3ccc(C(=O)O)cc3)C(=O)c3ccccc32)cc1`, for which the EC50 – broadly, the concentration needed to bring the measured effect to its halfway point – in assay [1] is 0.451 µM (active).

Take `Oc1c(C(c2ccccc2Cl)N2CCCC2)ccc2cccnc12` (stereo unspecified): the IC50 – broadly, the point on the concentration scale where inhibition reaches its midpoint – in assay [2] was 102 µM (inactive). Also, the AC50 (commonly the concentration at which the activity in the assay is half-maximal) in assay [3] was 3.34 µM (active).

Regarding `COc1cccc(/C=N/Nc2ccc([N+](=O)[O-])cn2)c1O`, the concentration for a half-maximal effect (EC50) in assay [1] is 0.912 µM (active). Besides, the IC50 in assay [2] is > 118 µM (inactive). In assay [3], the half-maximal activity concentration (AC50) is 3.85 µM (active).
